The text below walks through data of US20160264523A1, “CONJUGATE COMPRISING FOLIC ACID AND INDOLE-3-CARBINOL FOR MEDICAL USE” (Dom Terry International S.R.L., priority 2013, published 2016).

In test [1] the test system is inducible nitric oxide synthetase (iNos) activity in J774A.1 macrophage cells stimulated by LPS. Description: Anti-inflammatory activity: production of nitrites and release of NO. The format is cell-based. As to conditions: 24 h, J774A.1 macrophages stimulated with LPS of E. coli, n=5. As to the method: I3C, conjugate derivatives free from folic acid (PEG-I3C), and folate conjugates F-PEG-I3C, F-PEG-AD-(I3C)2, and F-PEG-βGlu-(I3C)2 were tested for their anti-inflammatory activity against the inducible nitric oxide synthetase (iNos) activity in J774A.1 macrophage cells stimulated by LPS and assessing the production of nitrites and the release of NO.
The PEG-I3C conjugates, free from folic acid, show a lower activity, thus indicating a real targeting effect of the folic acid molecule on the activated macrophage cells. […] The data are expressed as the inhibition percentage±s.e.m. vs the production of nitrites during 24 h by J774A.1 macrophage cells treated with LPS alone.

A short description of test [2]: ABTS cationic free radical discoloration assay (antioxidant activity). Further details: key: TEAC: mM Trolox equivalent to 1 mM tested compound. The following applies: TEAC = concentration of Trolox having the same antioxidant ability of the tested compound at 1 mM. An excerpt: The cationic free radical ABTS+° discoloration assay assesses the scavenging ability of an antioxidant against a preformed cationic radical (ABTS^+°) compared to Trolox, a hydrosoluble analogue of Vitamin E.

For test [3], the system named is tumor cells that are positive to the estrogen receptor. The following applies: a number of in vitro and in vivo studies (background); cited from earlier work.
Test [4] relates to HT-29 (human colon adenocarcinoma). Description: Cytotoxic activity, cell growth inhibition. In kind it is cell-based. As to conditions: HT-29 cells; n=4; read-out: IC50, concentration that inhibits the 50% cell growth compared to control cultures. As to the method: (§1) The studies of cytotoxic activity were carried out on three human cell lines: HT-29 (human colon adenocarcinoma), MCF-7 (human breast adenocarcinoma), and KB-3-1 (human oropharyngeal carcinoma), which cells are characterized by an overexpression of folic acid (FR+) receptors. […], conjugates free from folic acid (PEG-[…]), and the folate conjugates F-PEG-I3C, F-PEG-AD-(I3C)2, and F-PEG-βGlu-(I3C)2 were tested.

The subject of test [5] is KB-3-1 (human oropharyngeal carcinoma). The test is described as follows: Cytotoxic activity, cell growth inhibition. The format is cell-based. As to conditions: KB-3-1 cells (FR+); n=4; read-out: IC50, concentration that inhibits the 50% cell growth compared to control cultures. As to the method: as §1
In test [6] the test system is MCF-7 (human breast adenocarcinoma). The test is described as follows: Cytotoxic activity, cell growth inhibition. The format is cell-based. The following applies: MCF-7 cells; n=4; read-out: IC50, concentration that inhibits the 50% cell growth compared to control cultures. As to the method:
as §1

Test [7] concerns collagen-induced platelet aggregation. Description: Platelet antiaggregating activity on platelet-enriched plasma. The format is cell-based. As to the method: The platelet anti-aggregating effect induced by a series of mediators was tested on platelet-enriched plasma samples.

On to “Indole-3-Carbinol-PEG600-Indole-3-Carbinol [I3C-PEG600-I3C]”, for which the “Nitrites release inhibition (% vs LPS)” value in test [1] (1 μg/mL) is recorded as 32.2 ± 1.4 %; in test [1] (10 μg/mL) it was 45.7 ± 1.7 %; in test [1] (100 μg/mL), 84.3 ± 3.8 %. Further, the “ABTS assay (TEAC)” value in test [2] turned out to be 5.8 ± 0.41.

On to `C[C@@H]1O[C@@H](O[C@H]2[C@H](Oc3cc(O)c4c(c3)O[C@H](c3ccc(O)cc3)CC4=O)O[C@H](CO)[C@@H](O)[C@@H]2O)[C@H](O)[C@H](O)[C@H]1O` [Naringin], for which the “ABTS assay (TEAC)” value in test [2] is given as 0.5 ± 0.01.

As to `C[C@@H]1O[C@@H](O[C@@H]2[C@@H](O)[C@H](OCCc3ccc(O)c(O)c3)O[C@H](CO)[C@H]2OC(=O)/C=C/c2ccc(O)c(O)c2)[C@H](O)[C@H](O)[C@H]1O` [Verbascoside], in test [2], the “ABTS assay (TEAC)” value is 5.3 ± 0.22.

Turning to `O=C(O)/C=C/c1ccc(O)c(O)c1` [Caffeic acid], the “ABTS assay (TEAC)” value in test [2] was determined as 5.8 ± 0.12.

Consider `O=C(O)c1ccc(O)c(O)c1` [3,4-Dihydroxybenzoic acid], for which the “ABTS assay (TEAC)” value in test [2] is 4.6 ± 0.18.

With Tocopherol, the “ABTS assay (TEAC)” value in test [2] is on record as 2.1 ± 0.07.

For `O=c1cc(-c2ccc(O)c(O)c2)oc2cc(O)cc(O)c12` [Luteolin], in test [2], the “ABTS assay (TEAC)” value is reported as 2.8 ± 0.09.

Take `OCc1c[nH]c2ccccc12` [Compound I3C, Indole-3-carbinol]: in test [3], the “inhibition of the development of tumor cells positive to the estrogen receptor” value is on record as “up to 90%”. In addition, the “Nitrites release inhibition (% vs LPS)” value in test [1] (1 μg/mL) is reported as 10.0 ± 1.1%; in test [1] (10 μg/mL), 20.0 ± 0.9 %; in test [1] (100 μg/mL), 70.1 ± 1.2 %. Moreover, the IC50 in test [4] amounted to 45.1 ± 1.7 µM; in test [5], 93 ± 2.1 µM; in test [6] it was 30 ± 0.7 µM. Besides, the “ABTS assay (TEAC)” value in test [2] is given as 3.8 ± 0.12. Also, the platelet aggregation inhibition in test [7] (3 μM) came to 70%; in test [7] (6 μM), 73%; in test [7] (12 μM), 78%; in test [7] (25 μM) it was 79%.

`O=C1C[C@@H](c2ccc(O)cc2)Oc2cc(O)cc(O)c21` [Naringenin]: in test [2], the “ABTS assay (TEAC)” value stood at 1.4 ± 0.03.

Regarding `O=c1cc(-c2ccc(O)cc2)oc2cc(O)cc(O)c12` [Apigenin], in test [2], the “ABTS assay (TEAC)” value is listed as 0.2 ± 0.01.

PEG550-Indole-3-Carbinol [PEG550-I3C]: the “Nitrites release inhibition (% vs LPS)” value stood at 12.5 ± 0.8% in test [1] (1 μg/mL), 34.1 ± 1.2 % in test [1] (10 μg/mL) and 72.5 ± 2.4 % in test [1] (100 μg/mL). For the same compound, the “ABTS assay (TEAC)” value in test [2] stood at 4.2 ± 0.26.

Take `COc1ccc([C@@H]2CC(=O)c3c(O)cc(O[C@@H]4O[C@H](CO[C@@H]5O[C@@H](C)[C@H](O)[C@@H](O)[C@H]5O)[C@@H](O)[C@H](O)[C@H]4O)cc3O2)cc1O` [Hesperidin]: the “ABTS assay (TEAC)” value in test [2] came to 0.5 ± 0.09.
